Test results as given in ChEMBL document CHEMBL1148500, “Inhibitory activity of cyclohexenyl chalcone derivatives and flavonoids of fingerroot, Boesenbergia rotunda (L.), towards dengue-2 virus NS3 protease” (Bioorg Med Chem Lett, 2006).

Columns and labels:
[1] = target: Genome polyprotein (dengue virus type 2) (UniProt P29990); assay: Inhibition of dengue2 virus NS2B/NS3 protease activity for Ac-Thr-Arg-Arg-MCA cleavage at 120 ppm
[2] = target: Genome polyprotein (dengue virus type 2) (UniProt P29990); assay: Inhibition of dengue2 virus NS2B/NS3 protease activity for Ac-Thr-Arg-Arg-MCA cleavage at 240 ppm
[3] = target: Genome polyprotein (dengue virus type 2) (UniProt P29990); assay: Inhibition of dengue2 virus NS2B/NS3 protease activity for Ac-Thr-Arg-Arg-MCA cleavage at 400 ppm
Genome polyprotein = Genome polyprotein (dengue virus type 2, UniProt P29990); assay: Inhibition of dengue2 virus NS3 protease
[4] = target: Genome polyprotein (dengue virus type 2) (UniProt P29990); assay: Inhibition of dengue2 virus NS2B/NS3 protease activity for Boc-Gly-Arg-Arg-MCA cleavage at 120 ppm
[5] = target: Genome polyprotein (dengue virus type 2) (UniProt P29990); assay: Inhibition of dengue2 virus NS2B/NS3 protease activity for Boc-Gly-Arg-Arg-MCA cleavage at 80 ppm
[6] = target: Genome polyprotein (dengue virus type 2) (UniProt P29990); assay: Inhibition of dengue2 virus NS2B/NS3 protease activity for Boc-Gly-Arg-Arg-MCA cleavage at 160 ppm
[7] = target: Genome polyprotein (dengue virus type 2) (UniProt P29990); assay: Inhibition of dengue2 virus NS2B/NS3 protease activity for Boc-Gly-Arg-Arg-MCA cleavage at 400 ppm
[8] = target: Genome polyprotein (dengue virus type 2) (UniProt P29990); assay: Inhibition of dengue2 virus NS2B/NS3 protease activity for Boc-Gly-Arg-Arg-MCA cleavage at 40 ppm
[9] = target: Genome polyprotein (dengue virus type 2) (UniProt P29990); assay: Inhibition of dengue2 virus NS2B/NS3 protease activity for Boc-Gly-Arg-Arg-MCA cleavage at 240 ppm

| SMILES | inhibition [1] [%] | inhibition [2] [%] | inhibition [3] [%] | Ki (Genome polyprotein) [µM] | inhibition [4] [%] | inhibition [5] [%] | inhibition [6] [%] | inhibition [7] [%] | inhibition [8] [%] | inhibition [9] [%] |
| --- | --- | --- | --- | --- | --- | --- | --- | --- | --- | --- |
| COc1cc(O)c2c(c1)O[C@H](c1ccccc1)CC2=O [PINOSTROBIN] | 76.7 | 80.7 | 88.7 | 345 | – | – | – | – | – | – |
| CC(C)=CC[C@@H]1C(C)=CC[C@@H](c2ccccc2)[C@@H]1C(=O)c1c(O)cc(O)cc1O [4-HYDROXYPANDURATIN A] | 90.4 | 96.1 | 99.2 | 21 | 87.6 | 78.1 | 96 | 99.8 | 52 | 97.3 |
| COc1cc(O)c(C(=O)[C@@H]2[C@H](CC=C(C)C)C(C)=CC[C@H]2c2ccccc2)c(O)c1 [PANDURATIN A] | 47.5 | 59.6 | 90.4 | 25 | 87.7 | 66.7 | 93.7 | 99.8 | 27.1 | 92.2 |
| O=C1C[C@@H](c2ccccc2)Oc2cc(O)cc(O)c21 | – | – | – | – | 30.1 | – | – | 56.1 | – | 47.3 |
| COc1cc(O)cc(O)c1C(=O)/C=C/c1ccccc1 [CARDAMOMIN] | – | – | – | 377 | 39.4 | – | – | 71.3 | – | 50.1 |
